The test system of one data set is Colo205 cell. Nature of the data set: Proliferation inhibition on Colo205 (CCK8). Type of data set: cell-based. Particulars: Homo sapiens, COLO 205, Colo205, 72 hours. The text has this:
Cell line used in the assay: Colo205 (Cell Bank of the Chinese Academy of Sciences, Catalog No. TCHu102).
The following in vitro cell assay is to determine the activity of the compounds of the present invention for inhibiting the proliferation of human colon cancer cell, and the activity is expressed as IC50. General programs of this kind of assay were as follows: First, the cell line to be tested (purchased from Cell Bank of the Chinese Academy of Sciences) was inoculated in a 96-well culture plate with a suitable cell concentration of 4000 cells/mL medium, and was cultured in a carbon dioxide incubator at 37° C., then grown overnight. The medium was replaced by new medium added with a series of concentrations (10000 nM, 1000 nM, 100 nM, 10 nM, 1 nM, 0.1 nM) of the test compound solutions. The plates were placed back in the incubator, and continuously cultured for 72 hours. After 72 hours, CCK8 (Cell Counting Kit-8, Catalog No.: CK04, purchased from colleagues chemical company) method was used to determine the proliferation inhibition activity of the test compounds. IC50 values were calculated from the inhibition data of the test compounds at a series of different concentrations.
The above assay was used to determine the biochemical activity of the compounds of the present invention.

For data set [1], the target named is T1, MAP2K2 (MEK2) Recombinant Human Protein (Homo sapiens, UniProt P36507).
T1 construct: purchased Invitrogen PV3615 (MEK2); PV3314 (ERK2)
T1 sequence (P36507 whole entry): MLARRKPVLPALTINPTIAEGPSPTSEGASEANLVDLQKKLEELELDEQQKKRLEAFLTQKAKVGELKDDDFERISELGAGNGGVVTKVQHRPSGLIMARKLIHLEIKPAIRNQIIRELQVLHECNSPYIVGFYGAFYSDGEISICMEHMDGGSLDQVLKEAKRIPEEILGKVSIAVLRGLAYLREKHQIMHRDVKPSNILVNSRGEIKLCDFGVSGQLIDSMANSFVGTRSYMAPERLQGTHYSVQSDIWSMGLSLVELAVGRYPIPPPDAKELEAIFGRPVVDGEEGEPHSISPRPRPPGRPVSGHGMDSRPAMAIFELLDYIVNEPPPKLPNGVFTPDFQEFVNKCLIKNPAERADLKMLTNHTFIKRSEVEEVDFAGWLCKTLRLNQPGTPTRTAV
Put plainly: MEK2 kinase inhibition assay (Z'-LYTE, MEK2/ERK2 coupled). Type of data set: biochemical. Particulars: recombinant human MEK2 with ERK2, Z'-LYTE, 1.5 hours at 25° C; read-out: IC50 for inhibiting MEK kinase (MEK2). The procedure:
MEK2 kinase activity was tested in vitro by the following method.
MEK kinase used in the assay:
MAP2K2 (MEK2) Recombinant Human Protein (Invitrogen, Catalog No. PV3615)
MAPK1 (ERK2) Recombinant Human Protein (Invitrogen, Catalog No. PV3314)
Kit used in the assay: Z′-LYTE™ Kinase Assay Kit-Ser/Thr 03 Peptide (Invitrogen, Catalog No. PV3176).
The following in vitro assay was used to determine the activity of the compounds of the present invention for inhibiting the […] MEK kinase. The test compound was dissolved in dimethyl sulfoxide to the desired concentration. 1× Buffer A (Invitrogen, Catalog No. PV3189) was prepared, ATP was diluted with 1× Buffer A to obtain 400 μM ATP solution, appropriate amounts of Z′-LYTE™ Ser/Thr 03 Peptide (Invitrogen, Catalog No. PV3200), MEK kinase (MEK 2) enzymes, (ERK2) enzymes and 1× Buffer A were mixed, and appropriate amounts of Z′-LYTE™ Ser/Thr 03 phosphoPeptide substrate (Invitrogen, Catalog No. PV3215) and 1× Buffer A were formulated into a mixture to be tested. The 4% DMSO solution of the test compound was prepared from 1× buffer and DMSO solution of the test compound. 2.5 μL DMSO solution of the test compound was added to a reaction well, and then 2.5 μL of 400 μM ATP solution, 5 μL of enzyme and substrate mixture were added to become a 10 μL reaction system. The reaction system was incubated for 1.5 hours at 25° C., and a mixture was prepared according to Reagent A:Buffer B=1:1024. 5 μL of a mixture of Reagent A (Invitrogen, Catalog No. PV3295) and Buffer B (Invitrogen, Item No. P3127) was added to a reaction well, the reaction system was incubated for 60 minutes at 25° C., and then the fluorescence was read by a NovoStar ELISA with excitation wavelength: 400 nm, and emission wavelength: 445 nm and 520 nm.
The above assay was used to determine the biochemical activity of the compounds of the present invention for inhibiting MEK kinase (MEK2).

Data set [2] can be described thus: Pharmacokinetics assay in SD rats, intragastric administration. In kind it is in vivo, Sprague-Dawley (SD) rats. The note with it: 10 mg/kg; for AUC / CL/F / half-life / MRT / Cmax: both sexes, Sprague-Dawley, rat, plasma, po; for AUC: read-out: Area Under Curve AUC; for CL/F: read-out: Clearance CL/F; for half-life: read-out: Half-Life T½ (converted); for MRT: read-out: Mean Residence Time MRT; for Cmax: read-out: Plasma Conc. Cmax. The method, then:
Sprague-Dawley (SD) rats were used as test animals. The compounds of Example 1, Example 22, Example 29 and Example 31 were administered intragastrically to rats to determine the drug concentration in plasma at different time points by a LC/MS/MS method. The pharmacokinetic behavior of the compounds of the present invention was studied and evaluated in rats.
16 Healthy adult SD rats, half male and half female, purchased from SINO-BRITSH SIPPR/BK LAB. ANIMAL LTD., CO, Certificate No.: SCXK (Shanghai) 2008-0016, were divided into four groups, with 4 rats in each group.
The appropriate amounts of test compounds were weighed and mixed with 40 μL of tween 80 and 0.5% CMC-Na to prepare a 1 mg/mL suspension by an ultrasonic method.
After an overnight fast, 16 SD rats, half male and half female, were divided into 4 groups, with 4 rats in each group, and administered the test compounds intragastrically at a dose of 10 mg/kg, and an administration volume of 10 mL/kg.
Blood samples (0.1 mL) were taken from the orbital sinus before administration, and at 0.5 h, 1 h, 2 h, 4 h, 6 h, 8 h, 11 h, 24 h and 48 h after administration, stored in heparinized tubes, and centrifuged for 10 minutes at 3,500 rpm to separate blood plasma. The plasma samples were stored at −20° C. The rats were fed 2 hours after administration.
The concentration of the test compounds in rat plasma after intragastrically administering the test compounds was analyzed by a LC-MS/MS method. The linearity range of the method is 1.00-2000 ng/ml, and the lower limit of quantification is 1.00 ng/ml. Plasma samples were analyzed after protein precipitation.

For `CCS(=O)(=O)Nc1cccc(Oc2cc(=O)n(C)c(Nc3ccc(I)cc3F)c2C(N)=O)c1C` [Example 3, 4-(3-(ethylsulfonamido)-2-methylphenoxy)-2-((2-fluoro-4-iodophenyl)amino)-1-methyl-6-oxo-1,6-dihydropyridine-3-carboxamide], the IC50 in the data set with Colo205 cell was 0.04 nM; in data set [1], 19.8 nM.

`Cc1c(F)cccc1Oc1cc(=O)n(C)c(Nc2ccc(I)cc2F)c1C(N)=O` [Example 1, 4-(3-fluoro-2-methylphenoxy)-2-((2-fluoro-4-iodophenyl)amino)-1-methyl-6-oxo-1,6-dihydropyridine-3-carboxamide] yielded an IC50 with Colo205 cell of 0.7 nM. The 50% inhibitory concentration (IC50) in data set [1] worked out at 108 nM. In data set [2], the “Apparent Distribution Volume Vd” value was 163.863 ± 87.909 L/kg, the area under the curve (AUC) was 0.642 ± 0.187 µg·h/mL, the CL/F turned out to be 16.8 ± 5.68 L/h/kg and the half-life is 6.61 ± 1.66 h. Besides, in data set [2], the MRT came out at 10.5 ± 2.41 h and the Cmax came to 0.0563 ± 0.0156 µg/mL.

Regarding `Cc1cc(F)ccc1Oc1cc(=O)n(C)c(Nc2ccc(I)cc2F)c1C(N)=O` [Example 22, 4-(4-fluoro-2-methylphenoxy)-2-((2-fluoro-4-iodophenyl)amino)-1-methyl-6-oxo-1,6-dihydropyridine-3-carboxamide], the IC50 in the data set with Colo205 cell stood at 6.1 nM. For the same molecule, the IC50 in data set [1] was 121 nM. Besides, in data set [2], the “Apparent Distribution Volume Vd” value was 98.789 ± 42.165 L/kg, the AUC came to 1.11 ± 0.746 µg·h/mL, the CL/F is 13.4 ± 9.06 L/h/kg and the half-life was 7.18 ± 4.64 h. In data set [2], the MRT turned out to be 11.3 ± 6.7 h and the Cmax came out at 0.108 ± 0.038 µg/mL.

As for `Cc1ncccc1Oc1cc(=O)n(C)c(Nc2ccc(I)cc2F)c1C(N)=O` [Example 29, 2-((2-fluoro-4-iodophenyl)amino)-1-methyl-4-((2-methylpyridin-3-yl)oxy)-6-oxo-1,6-dihydropyridine-3-carboxamide], it took 0.8 nM to reach half-maximal inhibition with Colo205 cell (IC50). Also, the IC50 in data set [1] amounted to 217 nM. Further, in data set [2], the “Apparent Distribution Volume Vd” value came out at 11.319 ± 6.87 L/kg, the AUC came to 6.12 ± 3.03 µg·h/mL, the CL/F worked out at 1.97 ± 0.93 L/h/kg and the half-life is 3.79 ± 0.76 h. In addition, in data set [2], the mean residence time MRT came to 3.79 ± 0.5 h and the maximum concentration (Cmax) was 1.44 ± 0.396 µg/mL.

As for `Cc1ccc(Oc2cc(=O)n(C)c(Nc3ccc(I)cc3F)c2C(N)=O)cn1` [Example 31, 2-((2-fluoro-4-iodophenyl)amino)-1-methyl-4-((6-methylpyridin-3-yl)oxy)-6-oxo-1,6-dihydropyridine-3-carboxamide], half-maximal inhibition in the data set on Colo205 cell (IC50) required 3.6 nM. Besides, the IC50 in data set [1] is 351 nM. Further, in data set [2], the “Apparent Distribution Volume Vd” value is 4.483 ± 3.051 L/kg, the AUC is 18.1 ± 9.97 µg·h/mL, the CL/F was determined as 0.696 ± 0.354 L/h/kg and the half-life was 4.12 ± 0.96 h. In data set [2], the MRT was found to be 4.43 ± 0.96 h and the Cmax came to 3.37 ± 0.756 µg/mL.

By IC50 is commonly meant the point on the concentration scale where inhibition reaches its midpoint. The term AUC denotes concentration integrated over time. The term half-life denotes the time needed for the level to fall by half in the phase considered. The MRT is the average time that molecules of a dose stay in the body. As usually defined, the Cmax is the highest concentration seen after dosing.

For the origin of these results see patent US10064848B2, “Pyridic ketone derivatives, method of preparing same, and pharmaceutical application thereof” (Shanghai Hengrui Pharmaceutical Co., Ltd., priority 2013, dated 2018).
